Measurements from patent publication US20150307520A1, “NOVEL HETEROARYL AND HETEROCYCLE COMPOUNDS, COMPOSITIONS AND METHODS THEREOF” (HUTCHISON MEDIPHARMA LIMITED, priority 2012, published 2015).

Columns and labels:
Assay type in all cases: biochemical
p110γ = p110γ (Homo sapiens, UniProt P48736); assay: Transcreener KINASE Assay, kinase inhibition of p110γ; details: for PI3Kγ IH % @ 1 uM: 1 uM test compound; for IC50: read-out: PI3Kγ IC50
Procedure, shortened: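 FP read-out: far-red competitive immunoassay sensing ADP produced by recombinant p110/p85 or p110γ enzyme. Reaction 80 min RT, then detection mix 60 min RT. IC50 from curve fit.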

p110β/p85α = p110β/p85α (Homo sapiens, UniProt P42338); assay: Transcreener KINASE Assay, kinase inhibition of p110β/p85α; details: for PI3Kβ IH % @ 1 uM: 1 uM test compound; for IC50: read-out: PI3Kβ IC50
Procedure, shortened: (§1)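 Recombinant PI3K/p85α heterodimers were incubated with compound (2% DMSO final) for 80 min at room temperature in 50 mM HEPES, 100 mM NaCl, 1 mM EGTA, 0.03% CHAPS, 3 mM MgCl2, 1 mM DTT, with substrate added as a 30 uM PIP2/10 uM ATP mix. ADP was detected by competitive fluorescence polarization immunoassay.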

p110δ/p85α = p110δ/p85α (Homo sapiens, UniProt O00329); assay: Transcreener KINASE Assay, kinase inhibition of p110δ/p85α; details: for PI3Kδ IH % @ 1 uM: 1 uM test compound; for IC50: read-out: PI3Kδ IC50
Procedure, shortened: as §1

Sequence of p110β/p85α (P42338 whole entry): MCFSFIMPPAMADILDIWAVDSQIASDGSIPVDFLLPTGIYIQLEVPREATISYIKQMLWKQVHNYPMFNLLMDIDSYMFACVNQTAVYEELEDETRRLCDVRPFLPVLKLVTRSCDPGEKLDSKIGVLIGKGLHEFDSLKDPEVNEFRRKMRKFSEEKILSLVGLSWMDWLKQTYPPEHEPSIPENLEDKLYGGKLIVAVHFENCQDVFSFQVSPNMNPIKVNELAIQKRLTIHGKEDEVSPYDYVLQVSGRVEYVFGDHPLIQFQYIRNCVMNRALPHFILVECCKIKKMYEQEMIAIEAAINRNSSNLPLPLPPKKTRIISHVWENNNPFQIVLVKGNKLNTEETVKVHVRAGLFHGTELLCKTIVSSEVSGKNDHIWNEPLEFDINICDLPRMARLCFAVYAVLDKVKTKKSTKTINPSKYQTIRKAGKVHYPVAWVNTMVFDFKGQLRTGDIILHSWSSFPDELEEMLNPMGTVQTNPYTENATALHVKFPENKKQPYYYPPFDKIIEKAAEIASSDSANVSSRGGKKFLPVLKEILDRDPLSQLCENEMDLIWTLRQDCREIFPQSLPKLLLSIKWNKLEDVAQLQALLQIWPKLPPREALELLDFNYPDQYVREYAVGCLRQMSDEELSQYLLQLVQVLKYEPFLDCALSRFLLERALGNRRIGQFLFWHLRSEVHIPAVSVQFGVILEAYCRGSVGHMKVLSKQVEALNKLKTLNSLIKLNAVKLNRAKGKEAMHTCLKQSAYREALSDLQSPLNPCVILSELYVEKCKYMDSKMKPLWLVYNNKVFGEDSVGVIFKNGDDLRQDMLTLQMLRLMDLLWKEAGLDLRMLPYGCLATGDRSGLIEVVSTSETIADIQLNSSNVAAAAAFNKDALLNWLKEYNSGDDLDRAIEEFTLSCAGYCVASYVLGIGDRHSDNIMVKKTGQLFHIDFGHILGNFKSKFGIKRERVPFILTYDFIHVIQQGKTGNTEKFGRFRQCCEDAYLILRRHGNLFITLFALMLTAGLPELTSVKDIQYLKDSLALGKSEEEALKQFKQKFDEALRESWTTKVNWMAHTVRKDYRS
Sequence of p110β/p85α (P27986 2-724 partner): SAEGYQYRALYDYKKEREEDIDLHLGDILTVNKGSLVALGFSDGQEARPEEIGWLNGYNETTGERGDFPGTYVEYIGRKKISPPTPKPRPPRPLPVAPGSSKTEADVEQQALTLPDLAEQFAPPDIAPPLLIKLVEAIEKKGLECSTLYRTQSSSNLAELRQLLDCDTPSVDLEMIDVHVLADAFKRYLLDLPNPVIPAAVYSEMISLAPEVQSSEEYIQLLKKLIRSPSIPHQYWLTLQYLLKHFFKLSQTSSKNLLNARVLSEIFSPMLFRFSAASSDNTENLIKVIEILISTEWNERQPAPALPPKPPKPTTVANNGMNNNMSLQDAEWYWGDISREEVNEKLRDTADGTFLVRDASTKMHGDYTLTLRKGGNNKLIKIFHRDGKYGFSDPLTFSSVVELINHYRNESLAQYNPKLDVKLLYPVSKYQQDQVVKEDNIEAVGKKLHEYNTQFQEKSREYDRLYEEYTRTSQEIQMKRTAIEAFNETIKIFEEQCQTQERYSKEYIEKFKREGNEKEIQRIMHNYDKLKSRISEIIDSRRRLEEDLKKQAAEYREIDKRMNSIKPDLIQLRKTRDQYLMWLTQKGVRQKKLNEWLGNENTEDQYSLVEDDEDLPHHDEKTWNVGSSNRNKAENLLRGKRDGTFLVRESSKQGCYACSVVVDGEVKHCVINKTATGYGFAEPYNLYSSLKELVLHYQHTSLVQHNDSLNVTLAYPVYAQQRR
Sequence of p110δ/p85α (O00329 whole entry): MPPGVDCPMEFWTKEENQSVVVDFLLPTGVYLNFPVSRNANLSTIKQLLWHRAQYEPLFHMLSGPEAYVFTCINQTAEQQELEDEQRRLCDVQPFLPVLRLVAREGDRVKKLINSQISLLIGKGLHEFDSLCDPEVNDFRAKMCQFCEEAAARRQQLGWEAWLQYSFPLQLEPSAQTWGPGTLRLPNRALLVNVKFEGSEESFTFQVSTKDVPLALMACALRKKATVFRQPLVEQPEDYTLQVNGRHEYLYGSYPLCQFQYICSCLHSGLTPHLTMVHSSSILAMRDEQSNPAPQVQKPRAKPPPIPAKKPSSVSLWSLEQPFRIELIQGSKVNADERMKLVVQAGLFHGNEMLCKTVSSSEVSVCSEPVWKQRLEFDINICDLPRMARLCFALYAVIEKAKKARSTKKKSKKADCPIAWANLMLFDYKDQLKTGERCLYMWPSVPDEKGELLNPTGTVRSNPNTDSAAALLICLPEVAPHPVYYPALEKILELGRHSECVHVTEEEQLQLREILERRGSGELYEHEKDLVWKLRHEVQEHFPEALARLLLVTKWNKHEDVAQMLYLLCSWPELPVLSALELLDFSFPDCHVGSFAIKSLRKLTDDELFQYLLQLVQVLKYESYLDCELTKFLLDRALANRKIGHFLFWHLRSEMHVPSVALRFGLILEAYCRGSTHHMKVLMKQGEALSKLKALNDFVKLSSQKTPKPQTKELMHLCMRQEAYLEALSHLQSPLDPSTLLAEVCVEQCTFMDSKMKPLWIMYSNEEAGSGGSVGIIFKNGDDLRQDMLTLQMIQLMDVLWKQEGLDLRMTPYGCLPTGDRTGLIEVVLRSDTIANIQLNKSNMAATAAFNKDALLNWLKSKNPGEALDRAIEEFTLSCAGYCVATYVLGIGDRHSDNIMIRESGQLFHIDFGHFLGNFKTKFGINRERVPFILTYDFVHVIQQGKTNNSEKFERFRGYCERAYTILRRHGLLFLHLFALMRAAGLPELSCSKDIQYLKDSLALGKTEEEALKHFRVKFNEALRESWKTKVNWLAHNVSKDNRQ
Sequence of p110δ/p85α (P27986 whole entry partner): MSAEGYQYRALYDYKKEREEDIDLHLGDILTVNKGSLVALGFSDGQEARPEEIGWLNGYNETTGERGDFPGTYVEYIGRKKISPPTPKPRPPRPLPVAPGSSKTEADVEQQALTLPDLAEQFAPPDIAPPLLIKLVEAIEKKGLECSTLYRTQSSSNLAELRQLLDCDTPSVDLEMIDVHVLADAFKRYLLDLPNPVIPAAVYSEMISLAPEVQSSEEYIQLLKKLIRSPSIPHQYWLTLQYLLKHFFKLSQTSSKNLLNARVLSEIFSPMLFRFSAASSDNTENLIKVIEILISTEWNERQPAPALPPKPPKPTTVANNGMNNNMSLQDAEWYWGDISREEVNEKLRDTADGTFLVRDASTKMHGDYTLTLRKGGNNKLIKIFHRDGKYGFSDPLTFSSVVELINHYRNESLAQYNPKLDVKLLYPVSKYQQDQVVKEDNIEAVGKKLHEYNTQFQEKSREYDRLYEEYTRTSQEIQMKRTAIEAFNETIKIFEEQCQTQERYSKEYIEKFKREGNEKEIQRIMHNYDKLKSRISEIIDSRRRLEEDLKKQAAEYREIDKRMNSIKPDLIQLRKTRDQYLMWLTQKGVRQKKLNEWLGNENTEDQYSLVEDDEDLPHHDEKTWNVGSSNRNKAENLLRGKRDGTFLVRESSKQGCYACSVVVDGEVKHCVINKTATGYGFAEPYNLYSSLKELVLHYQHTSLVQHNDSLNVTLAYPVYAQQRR
Sequence of p110γ (P48736 whole entry): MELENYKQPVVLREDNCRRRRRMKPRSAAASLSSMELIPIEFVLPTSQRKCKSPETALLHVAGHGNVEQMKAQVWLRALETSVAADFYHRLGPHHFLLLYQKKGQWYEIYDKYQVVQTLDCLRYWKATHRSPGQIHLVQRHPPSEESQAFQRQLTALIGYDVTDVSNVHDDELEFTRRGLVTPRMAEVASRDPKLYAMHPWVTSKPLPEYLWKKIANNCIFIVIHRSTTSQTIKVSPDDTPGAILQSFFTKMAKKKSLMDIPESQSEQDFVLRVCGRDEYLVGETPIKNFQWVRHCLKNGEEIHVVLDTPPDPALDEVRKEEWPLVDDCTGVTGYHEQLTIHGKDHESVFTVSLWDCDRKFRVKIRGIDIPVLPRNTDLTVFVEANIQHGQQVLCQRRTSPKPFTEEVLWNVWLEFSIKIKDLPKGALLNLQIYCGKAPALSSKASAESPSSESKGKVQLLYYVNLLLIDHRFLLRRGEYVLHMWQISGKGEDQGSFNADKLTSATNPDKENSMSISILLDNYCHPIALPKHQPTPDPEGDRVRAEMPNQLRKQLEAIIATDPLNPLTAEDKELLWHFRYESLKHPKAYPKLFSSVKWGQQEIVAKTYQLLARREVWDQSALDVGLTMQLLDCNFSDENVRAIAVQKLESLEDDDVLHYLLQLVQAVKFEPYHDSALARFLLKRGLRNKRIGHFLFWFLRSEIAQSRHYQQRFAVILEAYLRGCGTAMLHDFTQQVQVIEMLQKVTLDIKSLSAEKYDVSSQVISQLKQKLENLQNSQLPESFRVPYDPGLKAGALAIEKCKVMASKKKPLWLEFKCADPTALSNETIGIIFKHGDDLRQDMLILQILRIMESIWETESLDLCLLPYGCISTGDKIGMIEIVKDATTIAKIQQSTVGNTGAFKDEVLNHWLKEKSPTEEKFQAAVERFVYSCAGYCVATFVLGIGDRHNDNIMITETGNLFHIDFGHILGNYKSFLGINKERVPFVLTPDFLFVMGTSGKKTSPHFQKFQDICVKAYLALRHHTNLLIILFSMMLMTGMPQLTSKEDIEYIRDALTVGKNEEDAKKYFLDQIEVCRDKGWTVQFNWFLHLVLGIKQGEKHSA

Row | Compound | PI3Kγ IH % @ 1 uM (p110γ) [%] | IC50 (p110γ) [nM] | PI3Kβ IH % @ 1 uM (p110β/p85α) [%] | IC50 (p110β/p85α) [nM] | PI3Kδ IH % @ 1 uM (p110δ/p85α) [%] | IC50 (p110δ/p85α) [nM]
1 | O=c1c2c(Cl)ccn2nc([C@@H]2C[C@H](O)CN2c2ncnc3[nH]cnc23)n1-c1ccccc1 [Compound 262] | 93.4 | 11 | 88.8 | 18 | 97.1 | –
2 | CO[C@H]1C[C@@H](c2nn3ccc(Cl)c3c(=O)n2-c2ccccc2)N(c2ncnc3[nH]cnc23)C1 [Compound 263] | >100 | 17 | 74.5 | 118 | >100 | 4
3 | COCCO[C@H]1C[C@@H](c2nn3ccc(Cl)c3c(=O)n2-c2ccccc2)N(c2ncnc3[nH]cc(C#N)c23)C1 [Compound 264, 4-((2S,4S)-2-(5-chloro-4-oxo-3-phenyl-3,4-dihydropyrrolo[2,1-f][1,2,4]triazin-2-yl)-4-(2-methoxyethoxyl)pyrrolidin-1-yl)-7H-pyrrolo[2,3-d]pyrimidine-5-carbonitrile] | >100 | 3 | 92.8 | 69 | >100 | 1
4 | O=c1c2c(Cl)ccn2nc([C@@H]2C[C@H](OCCO)CN2c2ncnc3[nH]cnc23)n1-c1ccccc1 [Compound 265] | >100 | 11 | 68.6 | 300 | >100 | 1
5 | COCCO[C@H]1C[C@@H](c2nn3ccc(Cl)c3c(=O)n2-c2ccccc2)N(c2ncnc3[nH]cnc23)C1 [Compound 266] | >100 | 21 | 49.9 | – | >100 | 6
6 | C[S+]([O-])c1c[nH]c2ncnc(N3C[C@@H](F)C[C@H]3c3nn4ccc(Cl)c4c(=O)n3-c3ccccc3)c12 (stereo partly drawn) [Compound 267] | >100 | 13 | 73.2 | 206 | 98.9 | 3
7 | CC(Nc1ncnc2[nH]cc(S(C)(=O)=O)c12)c1cn2ccc(Cl)c2c(=O)n1-c1ccccc1 (stereo not drawn) [Compound 269] | >100 | 93 | 38.1 | – | 94.7 | 147
8 | CC(Nc1ncnc2[nH]cc(F)c12)c1cn2ccc(Cl)c2c(=O)n1-c1ccccc1 (stereo not drawn) [Compound 270] | 89.7 | 22 | 87.4 | 174 | >100 | 12
9 | CC(Nc1nc(N)ncc1C#N)c1cn2ccc(Cl)c2c(=O)n1-c1ccccc1 (stereo not drawn) [Compound 271] | 97.6 | 2 | 94.2 | 15 | >100 | 1
10 | CC(=O)c1c[nH]c2ncnc(NC(C)c3cn4ccc(Cl)c4c(=O)n3-c3ccccc3)c12 (stereo not drawn) [Compound 272] | >100 | 21 | 76.9 | 239 | 98.8 | 7
11 | CC(=O)c1cnc(N)nc1NC(C)c1cn2ccc(Cl)c2c(=O)n1-c1ccccc1 (stereo not drawn) [Compound 273] | 98.3 | 5 | 98.8 | 12 | >100 | 3
12 | CC(=O)c1c(N)ncnc1NC(C)c1cn2ccc(Cl)c2c(=O)n1-c1ccccc1 (stereo not drawn) [Compound 274] | 86.8 | 101 | 61.6 | – | 97.8 | 3
13 | CC(Nc1nc(N)nc2c1C(=O)CCN2)c1cn2ccc(Cl)c2c(=O)n1-c1ccccc1 (stereo not drawn) [Compound 275] | 97.8 | 1 | 97.5 | 12 | >100 | 0.4
14 | CC(=O)c1c[nH]c2ncnc(NC(C)c3cn4ccc(Cl)c4c(=O)n3-c3cccc(F)c3)c12 (stereo not drawn) [Compound 276] | 95.7 | 6 | 52.9 | – | 99.1 | 1
15 | CC(Nc1ncnc2[nH]cc(C#N)c12)c1cn2ccc(Cl)c2c(=O)n1-c1cccc(F)c1 (stereo not drawn) [Compound 277] | 97.0 | 11 | 81.4 | 247 | 99.5 | 1
16 | COCC#Cc1c[nH]c2ncnc(N3CC[C@H]3c3nn4ccc(Cl)c4c(=O)n3-c3ccccc3)c12 [Compound 279] | 92.0 | 42 | 43.0 | – | >100 | 5
17 | Cn1cc(-c2cnc(N)nc2N2CC[C@H]2c2nn3ccc(Cl)c3c(=O)n2-c2ccccc2)cn1 [Compound 280] | 87.2 | 256 | −2.0 | – | 47.0 | –

Row | Compound | PI3Kγ IH % @ 1 uM (p110γ) [%] | IC50 (p110γ) [nM] | PI3Kβ IH % @ 1 uM (p110β/p85α) [%] | IC50 (p110β/p85α) [nM] | PI3Kδ IH % @ 1 uM (p110δ/p85α) [%] | IC50 (p110δ/p85α) [nM]
18 | CN(C)C(=O)c1cnc(N)nc1N1CC[C@H]1c1nn2ccc(Cl)c2c(=O)n1-c1ccccc1 [Compound 281] | 62.2 | – | 11.1 | – | 15.7 | –
19 | Nc1ncc([N+](=O)[O-])c(N2CC[C@H]2c2nn3ccc(Cl)c3c(=O)n2-c2ccccc2)n1 [Compound 282] | 93.5 | – | 19.9 | – | 94.9 | –
20 | Cc1nc(N)nc(N2CC[C@H]2c2nn3ccc(Cl)c3c(=O)n2-c2ccccc2)c1C#N [Compound 283] | >100 | 1 | 78.0 | 137 | >100 | 2
21 | COc1cnc(N)nc1N1CC[C@H]1c1nn2ccc(Cl)c2c(=O)n1-c1ccccc1 [Compound 284] | 51.2 | – | 9.7 | – | 51.2 | –
22 | CC(Nc1ncnc2[nH]cc(F)c12)c1cc2ncc(Cl)n2c(=O)n1-c1ccccc1 (stereo not drawn) [Compound 285] | >100 | 37 | 79.0 | 257 | >100 | 4
23 | CC(Nc1ncnc2[nH]cc(S(C)(=O)=O)c12)c1cc2ncc(Cl)n2c(=O)n1-c1ccccc1 (stereo not drawn) [Compound 286] | 56.2 | – | 25.2 | – | 88.8 | 29
24 | CC(=O)c1c[nH]c2ncnc(NC(C)c3cc4ncc(Cl)n4c(=O)n3-c3ccccc3)c12 (stereo not drawn) [Compound 287] | 96.9 | 68 | 73.9 | 463 | >100 | 5
25 | CC(=O)c1cnc(N)nc1NC(C)c1cc2ncc(Cl)n2c(=O)n1-c1ccccc1 (stereo not drawn) [Compound 288] | 95.8 | 21 | 94.5 | 93 | 99.7 | 4
26 | CC(Nc1nc(N)nc2c1C(=O)CCN2)c1cc2ncc(Cl)n2c(=O)n1-c1ccccc1 (stereo not drawn) [Compound 290] | – | 4 | – | 39 | – | 1
27 | C=Cc1ccn2nc([C@@H]3CCN3c3ncnc4[nH]cc(C#N)c34)n(-c3ccccc3)c(=O)c12 [Compound 291] | 91.1 | 143 | 12.6 | – | 80.4 | –
28 | C=Cc1ccn2nc([C@@H]3CCCN3c3ncnc4[nH]cc(C#N)c34)n(-c3ccccc3)c(=O)c12 [Compound 292] | 94.7 | 112 | 45.1 | – | >100 | 7
29 | O=c1c2c(Cl)ccn2nc([C@@H]2C[S+]([O-])CN2c2ncnc3[nH]cnc23)n1-c1ccccc1 (stereo partly drawn) [Compound 293, 5-chloro-2-((4R)-1-oxido-3-(9H-purin-6-yl)thiazolidin-4-yl)-3-phenylpyrrolo[2,1-f][1,2,4]triazin-4(3H)-one] | 94.7 | 103 | 54.2 | – | 98.9 | 14
30 | O=c1c2c(Cl)ccn2nc([C@@H]2CSCN2c2ncnc3[nH]cnc23)n1-c1ccccc1 [Compound 294, (R)-2-(3-(9H-purin-6-yl)thiazolidin-4-yl)-5-chloro-3-phenylpyrrolo[2,1-f][1,2,4]triazin-4(3H)-one] | >100 | 26 | 70.6 | 475 | 99.3 | 3
31 | CC(=O)c1c[nH]c2ncnc(N3CC[C@H]3c3nn4ccc(Cl)c4c(=O)n3-c3ccc(F)cc3)c12 [Compound 296, (S)-2-(1-(5-acetyl-7H-pyrrolo[2,3-d]pyrimidin-4-yl)azetidin-2-yl)-5-chloro-3-(4-fluorophenyl)pyrrolo[2,1-f][1,2,4]triazin-4(3H)-one] | 85.5 | 36 | 6.8 | – | 77.0 | 381
32 | CC(=O)c1n[nH]c2ncnc(N3CCC[C@H]3c3nn4ccc(Cl)c4c(=O)n3-c3ccccc3)c12 [Compound 297] | 92.7 | 15 | 61.5 | – | 96.0 | 6
33 | CC(=O)c1n[nH]c2ncnc(N3CC[C@H]3c3nn4ccc(Cl)c4c(=O)n3-c3ccccc3)c12 [Compound 298] | 70.2 | 158 | 17.8 | – | 61.9 | –
